Laboratory results: patent US20230159556A1, “NOVEL PROTEIN KINASE INHIBITORS” (TENOVA PHARMACEUTICALS INC., priority 2020, published 2023)

Key:
[1] = target: Ba/F3_EGFR_del19/T790M/C797S cell (Homo sapiens, UniProt P00533, T790M/C797S, cells depend on it, form not given); assay: BaF3 cell proliferation assay (CelltiterGlo, 72 hr); assay type: cell-based; settings: 72 hr incubation; read-out: IC50 (nM, Ba/F3_EGFR_del19/T790M/C797S cell proliferation)
Method: (§1) The BaF3 cell proliferation assay was performed at Pharmaron (www.pharmaron.com, Beijing, China). The Ba/F3_WT and Ba/F3_Del19/T790M/C797S cell lines were maintained in 1640 medium containing 10% FBS, 1*PS and 1*Glutamax. Only cells with viability greater than 90% are used for assays. Dispense 30 μl of cell suspension at 700/well into 384 well microplate, add 30 nl compound solution into 384 cell plate by Echo, cells were incubated for 72 hr in 37° C./5% CO2 incubator, add 30 μl reagent CelltiterGlo assay kit (CTG, Promega) per well and shake plates, incubate the plate (avoiding light) at 37° C./5% CO2 for 30 min. and read the luminescence by Envision. The luminescence values were converted to % Inhibition. Calculate IC50 by fitting % inhibition values and log of compound concentrations to nonlinear regression (dose response−variable slope) with Graphpad 5.0.
(§2) Y=Bottom+(Top−Bottom)/(1+10^((Log IC50−X)*HillSlope))
(§3) X: log of inhibitor concentration; Y: % Inhibition.

[2] = test system: Ba/F3_WT cell; assay: as above; assay type: cell-based; settings: Mus musculus, 72 hr incubation
Method: as §1, §2, §3

[3] = target: T1, EGFR_L858R/T790M/C797S (Homo sapiens, UniProt P00533, C797S/L858R/T790M); assay: In vitro biochemical kinase assay (33P-ATP filter-binding, Reaction Biology)
T1 construct: Reaction Biology Corporation (contract assay provider)
Method: The biochemical kinase assay was performed at Reaction Biology Corporation (www.reactionbiology.com, Malvern, Pa.) following procedures described in the reference (Anastassiadis, T, et al, Nature Biotechnology, 2011, 29, 1039). Base Reaction buffer includes 20 mM Hepes (pH 7.5), 10 mM MgCl2, 1 mM EGTA, 0.02% Brij35, 0.02 mg/ml BSA, 0.1 mM Na3VO4, 2 mM DTT and 1% DMSO. Required cofactors are added individually to each kinase reaction. Testing compounds were dissolved in 100% DMSO to specific concentration. The serial dilution was conducted by Integra Viaflo Assist in DMSO. Compounds in 100% DMSO are into the kinase reaction mixture by Acoustic technology (Echo550; nanoliter range), incubate for 20 min at room temperature, followed by ^33P-ATP and incubation for 2 hours at room temperature. Radioactivity was then detected by filter-binding method. Kinase activity data were expressed as the percent remaining kinase activity in test samples compared to vehicle (dimethyl sulfoxide) reactions. IC50 values and curve fits were obtained using Prism (GraphPad Software).

Chain of Ba/F3_EGFR_del19/T790M/C797S cell (P00533 with tags, fused parts or gaps DEL746-750/T790M/C797S, form open): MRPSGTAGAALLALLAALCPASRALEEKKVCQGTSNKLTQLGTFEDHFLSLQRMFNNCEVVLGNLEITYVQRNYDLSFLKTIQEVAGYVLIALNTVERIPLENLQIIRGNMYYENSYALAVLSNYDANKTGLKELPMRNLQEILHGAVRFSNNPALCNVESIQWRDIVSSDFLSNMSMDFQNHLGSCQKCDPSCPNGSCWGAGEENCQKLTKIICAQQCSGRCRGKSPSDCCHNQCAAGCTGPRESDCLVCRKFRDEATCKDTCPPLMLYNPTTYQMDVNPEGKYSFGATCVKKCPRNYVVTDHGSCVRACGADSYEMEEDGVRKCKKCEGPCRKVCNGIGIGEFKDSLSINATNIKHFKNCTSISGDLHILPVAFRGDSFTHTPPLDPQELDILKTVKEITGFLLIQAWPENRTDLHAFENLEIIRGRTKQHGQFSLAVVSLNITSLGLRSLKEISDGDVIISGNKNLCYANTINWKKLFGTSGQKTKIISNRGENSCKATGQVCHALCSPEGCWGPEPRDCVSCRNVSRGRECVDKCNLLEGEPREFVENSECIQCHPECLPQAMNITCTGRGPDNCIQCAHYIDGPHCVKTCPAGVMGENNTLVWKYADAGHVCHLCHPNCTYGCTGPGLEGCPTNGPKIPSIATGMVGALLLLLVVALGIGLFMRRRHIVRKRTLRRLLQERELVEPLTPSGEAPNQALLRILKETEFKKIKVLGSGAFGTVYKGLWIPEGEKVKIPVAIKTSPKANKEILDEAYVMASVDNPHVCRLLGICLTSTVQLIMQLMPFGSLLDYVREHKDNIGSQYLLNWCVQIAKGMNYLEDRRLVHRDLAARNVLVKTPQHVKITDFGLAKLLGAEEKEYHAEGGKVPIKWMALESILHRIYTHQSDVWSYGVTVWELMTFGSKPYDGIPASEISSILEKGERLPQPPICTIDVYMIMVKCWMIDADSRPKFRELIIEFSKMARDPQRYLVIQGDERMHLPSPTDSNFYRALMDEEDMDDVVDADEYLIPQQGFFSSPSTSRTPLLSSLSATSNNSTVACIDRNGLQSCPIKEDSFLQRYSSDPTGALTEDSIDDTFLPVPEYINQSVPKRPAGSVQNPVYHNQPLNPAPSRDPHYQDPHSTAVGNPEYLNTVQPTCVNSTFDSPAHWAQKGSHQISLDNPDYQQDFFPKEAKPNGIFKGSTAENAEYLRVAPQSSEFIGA
T1 sequence (P00533 25-1210 T790M/C797S/L858R): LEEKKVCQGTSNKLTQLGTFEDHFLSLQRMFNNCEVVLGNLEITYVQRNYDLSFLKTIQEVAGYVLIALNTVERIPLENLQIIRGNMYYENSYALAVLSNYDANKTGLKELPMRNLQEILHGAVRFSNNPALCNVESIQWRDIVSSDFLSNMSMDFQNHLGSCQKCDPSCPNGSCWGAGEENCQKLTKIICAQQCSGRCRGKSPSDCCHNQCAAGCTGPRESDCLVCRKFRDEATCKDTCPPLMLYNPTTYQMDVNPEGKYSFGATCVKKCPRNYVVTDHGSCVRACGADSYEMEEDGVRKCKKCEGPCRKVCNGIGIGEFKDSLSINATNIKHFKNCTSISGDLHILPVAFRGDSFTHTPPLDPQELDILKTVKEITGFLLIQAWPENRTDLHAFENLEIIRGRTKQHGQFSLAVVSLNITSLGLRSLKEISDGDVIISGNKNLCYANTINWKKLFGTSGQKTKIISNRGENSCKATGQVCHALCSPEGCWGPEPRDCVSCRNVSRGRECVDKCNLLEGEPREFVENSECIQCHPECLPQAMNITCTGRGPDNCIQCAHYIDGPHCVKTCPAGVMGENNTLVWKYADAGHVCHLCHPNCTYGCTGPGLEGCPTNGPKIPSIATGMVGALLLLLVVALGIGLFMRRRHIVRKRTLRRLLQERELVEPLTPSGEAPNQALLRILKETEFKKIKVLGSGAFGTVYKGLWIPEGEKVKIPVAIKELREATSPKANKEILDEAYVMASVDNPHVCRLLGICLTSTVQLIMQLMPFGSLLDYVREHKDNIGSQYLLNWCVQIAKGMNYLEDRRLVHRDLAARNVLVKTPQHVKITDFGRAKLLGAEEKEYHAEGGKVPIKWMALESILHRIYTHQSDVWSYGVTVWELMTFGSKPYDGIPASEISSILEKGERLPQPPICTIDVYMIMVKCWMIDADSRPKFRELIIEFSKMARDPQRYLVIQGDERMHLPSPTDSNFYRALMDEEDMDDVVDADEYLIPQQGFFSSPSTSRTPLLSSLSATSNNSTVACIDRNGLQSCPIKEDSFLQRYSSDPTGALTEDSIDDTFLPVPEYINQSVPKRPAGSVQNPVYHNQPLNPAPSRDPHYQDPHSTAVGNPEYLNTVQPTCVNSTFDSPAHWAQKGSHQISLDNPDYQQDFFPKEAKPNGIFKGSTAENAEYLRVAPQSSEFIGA

| GI50 [1] | IC50 [2] | IC50 [3] | SMILES |
| --- | --- | --- | --- |
| 135 nM | 1180 nM | 9.86 nM | COc1cc(N2CCN(C)CC2)c2cc1Nc1ncc(Cl)c(n1)Nc1ccc(cc1N(C)S(C)(=O)=O)OCCCCC2 [Compound A3, N-(3^5-chloro-1^6-methoxy-1^4-(4-methylpiperazin-1-yl)-6-oxa-2,4-diaza-3(2,4)-pyrimidina-1(1,3),5(1,4)-dibenzenacycloundecaphane-5^2-yl)-N-methylmethanesulfonamide] |
| 252 nM | 3320 nM | 46.5 nM | COc1cc(N2CCN(C)CC2)c2cc1Nc1ncc(Cl)c(n1)Nc1ccc(cc1N(C)S(C)(=O)=O)OCCCC2 [Compound A4, N-(3^5-chloro-1^6-methoxy-1^4-(4-methylpiperazin-1-yl)-6-oxa-2,4-diaza-3(2,4)-pyrimidina-1(1,3),5(1,4)-dibenzenacyclodecaphane-5^2-yl)-N-methylmethanesulfonamide] |
| 538 nM | 3430 nM | 2.7 nM | CCS(=O)(=O)N(C)c1cc2ccc1Nc1nc(ncc1Cl)Nc1cc(c(N3CCN(C)CC3)cc1OC)CCCCCO2 [Compound A8, N-(3^5-chloro-1^6-methoxy-1^4-(4-methylpiperazin-1-yl)-6-oxa-2,4-diaza-3(2,4)-pyrimidina-1(1,3),5(1,4)-dibenzenacycloundecaphane-5^2-yl)-N-methylethanesulfonamide] |
| 125 nM | 1840 nM | 0.5 nM | CCN(c1cc2ccc1Nc1nc(ncc1Cl)Nc1cc(c(N3CCN(C)CC3)cc1OC)CCCCCO2)S(C)(=O)=O [Compound A10, N-(3^5-chloro-1^6-methoxy-1^4-(4-methylpiperazin-1-yl)-6-oxa-2,4-diaza-3(2,4)-pyrimidina-1(1,3),5(1,4)-dibenzenacycloundecaphane-5^2-yl)-N-ethylmethanesulfonamide] |
| 897 nM | 2960 nM | 16.7 nM | COc1cc(N2CCN(C)CC2)c2cc1Nc1ncc(Cl)c(n1)Nc1ccc(cc1N(C)S(C)(=O)=O)OCCCCCC2 [Compound A14, N-(3^5-chloro-1^6-methoxy-1^4-(4-methylpiperazin-1-yl)-6-oxa-2,4-diaza-3(2,4)-pyrimidina-1(1,3),5(1,4)-dibenzenacyclododecaphane-5^2-yl)-N-methylmethanesulfonamide] |
| 89 nM | 1450 nM | 2.6 nM | COc1cc(N2CCN(C3CCN(C)CC3)CC2)c2cc1Nc1ncc(Cl)c(n1)Nc1ccc(cc1N(C)S(C)(=O)=O)OCCCCC2 [Compound A20, N-(3^5-chloro-1^6-methoxy-1^4-(4-(1-methylpiperidin-4-yl)piperazin-1-yl)-6-oxa-2,4-diaza-3(2,4)-pyrimidina-1(1,3),5(1,4)-dibenzenacycloundecaphane-5^2-yl)-N-methylmethanesulfonamide] |
| 157 nM | 2660 nM | 2.6 nM | CCN(c1cc2ccc1Nc1nc(ncc1Cl)Nc1cc(c(N3CCN(C)CC3)cc1OC)CCCCCCO2)S(C)(=O)=O [Compound A23, N-(3^5-chloro-1^6-methoxy-1^4-(4-methylpiperazin-1-yl)-6-oxa-2,4-diaza-3(2,4)-pyrimidina-1(1,3),5(1,4)-dibenzenacyclododecaphane-5^2-yl)-N-ethylmethanesulfonamide] |
| 330 nM | 3400 nM | 2.3 nM | COc1cc(N2CCC(N(C)C)C2)c2cc1Nc1ncc(Cl)c(n1)Nc1ccc(cc1N(C)S(C)(=O)=O)OCCCCC2 (stereo not drawn) [Compound A27, N-(3^5-chloro-1^4-(3-(dimethylamino)pyrrolidin-1-yl)-1^6-methoxy-6-oxa-2,4-diaza-3(2,4)-pyrimidina-1(1,3),5(1,4)-dibenzenacycloundecaphane-5^2-yl)-N-methylmethanesulfonamide] |
| 154 nM | > 10000 nM | 12.7 nM | COc1cc(N2CCN(C(C)=O)CC2)c2cc1Nc1ncc(Cl)c(n1)Nc1ccc(cc1N(C)S(C)(=O)=O)OCCCCC2 [Compound A31, N-(1^4-(4-acetylpiperazin-1-yl)-3^5-chloro-1^6-methoxy-6-oxa-2,4-diaza-3(2,4)-pyrimidina-1(1,3),5(1,4)-dibenzenacycloundecaphane-5^2-yl)-N-methylmethanesulfonamide] |

The next lines start with the compound.

| SMILES | GI50 [1] | IC50 [2] | IC50 [3] |
| --- | --- | --- | --- |
| COc1cc(N2CCN(C)CC2)c2cc1Nc1ncc(C(F)(F)F)c(n1)Nc1ccc(cc1N(C)S(C)(=O)=O)OCCCCC2 [Compound A13, N-(1^6-methoxy-1^4-(4-methylpiperazin-1-yl)-3^5-(trifluoromethyl)-6-oxa-2,4-diaza-3(2,4)-pyrimidina-1(1,3),5(1,4)-dibenzenacycloundecaphane-5^2-yl)-N-methylmethanesulfonamide] | 108 nM | 3770 nM | 2 nM |
| COc1cc(N2CCC(N3CCN(C)CC3)CC2)c2cc1Nc1ncc(Cl)c(n1)Nc1ccc(cc1N(C)S(C)(=O)=O)OCCCCCC2 [Compound A15, N-(3^5-chloro-1^6-methoxy-1^4-(4-(4-methylpiperazin-1-yl)piperidin-1-yl)-6-oxa-2,4-diaza-3(2,4)-pyrimidina-1(1,3),5(1,4)-dibenzenacyclododecaphane-5^2-yl)-N-methylmethanesulfonamide] | 195 nM | 2660 nM | 0.5 nM |
| COc1cc(N2CCN(C)CC2)c2cc1Nc1ncc(Cl)c(n1)Nc1ccc(cc1P(C)(C)=O)OCCCCC2 [Compound A18, (3^5-chloro-1^6-methoxy-1^4-(4-methylpiperazin-1-yl)-6-oxa-2,4-diaza-3(2,4)-pyrimidina-1(1,3),5(1,4)-dibenzenacycloundecaphane-5^2-yl)dimethylphosphine oxide] | 520 nM | > 10000 nM | 145 nM |
| COc1cc(N2CCC(N3CCN(C)CC3)CC2)c2cc1Nc1ncc(Cl)c(n1)Nc1ccc(cc1S(=O)(=O)C(C)C)OCCCCC2 [Compound A26, 3^5-chloro-5^2-(isopropylsulfonyl)-16-methoxy-1^4-(4-(4-methylpiperazin-1-yl)piperidin-1-yl)-6-oxa-2,4-diaza-3(2,4)-pyrimidina-1(1,3),5(1,4)-dibenzenacycloundecaphane] | 1110 nM | 1790 nM | 250 nM |
| COc1cc(N2C[C@H]3CN(C)C[C@H]3C2)c2cc1Nc1ncc(Cl)c(n1)Nc1ccc(cc1N(C)S(C)(=O)=O)OCCCCC2 [Compound A28, N-(3^5-chloro-1^6-methoxy-1^4-((cis-3,6)-5-methylhexahydropyrrolo[3,4-c]pyrrol-2(1H)-yl)-6-oxa-2,4-diaza-3(2,4)-pyrimidina-1(1,3),5(1,4)-dibenzenacycloundecaphane-5^2-yl)-N-methylmethanesulfonamide] | 194 nM | 2970 nM | 1.4 nM |
| COc1cc(N2CCC(N3CCOCC3)CC2)c2cc1Nc1ncc(Cl)c(n1)Nc1ccc(cc1N(C)S(C)(=O)=O)OCCCCC2 [Compound A32, N-(3^5-chloro-1^6-methoxy-1^4-(4-morpholinopiperidin-1-yl)-6-oxa-2,4-diaza-3(2,4)-pyrimidina-1(1,3),5(1,4)-dibenzenacycloundecaphane-5^2-yl)-N-methylmethanesulfonamide] | 106 nM | 4840 nM | 0.6 nM |
| COc1cc(N2CCC(N3CCN(C)CC3)CC2)c2cc1Nc1ncc(Br)c(n1)Nc1ccc(cc1P(C)(C)=O)OCCCCCC2 [Compound A34, (3^5-bromo-1^6-methoxy-1^4-(4-(4-methylpiperazin-1-yl)piperidin-1-yl)-6-oxa-2,4-diaza-3(2,4)-pyrimidina-1(1,3),5(1,4)-dibenzenacyclododecaphane-5^2-yl)dimethylphosphine oxide] | 142 nM | 3820 nM | 2 nM |
| COc1cc(N2CCN(C)CC2)c2cc1Nc1ncc(Br)c(n1)Nc1ccc(cc1P(C)(C)=O)OCCCC2 [Compound A35, (3^5-bromo-1^6-methoxy-1^4-(4-methylpiperazin-1-yl)-6-oxa-2,4-diaza-3(2,4)-pyrimidina-1(1,3),5(1,4)-dibenzenacyclodecaphane-5^2-yl)dimethylphosphine oxide] | 1050 nM | 2240 nM | 289 nM |
